Experimental findings from the supplement of paper PMC10331698 are described below.

Experiment in all cases: level (log10 ratio to DMSO vehicle control); higher = higher biomarker level / cell amount than vehicle control
Common to all, as to conditions: in DMSO

Compound in assay [1]: FC(F)(F)C(F)(F)C(F)(F)C(F)(F)C(F)(F)C(F)(F)C(F)(F)CCI [1-Iodo-1H,1H,2H,2H-perfluorononane]
As for the experimental part: (§1)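 BioMAP Diversity Plus panel of 12 human primary cell co-culture systems (3C, 4H, LPS, SAg, BT, BF4T, BE3C, CASM3C, HDF3CGF, KF3CT, MyoF, Mphg). Compounds were added 1 h before stimulation and left for 24 h (MyoF 48 h; BT 72 h for soluble read-outs or 6 d for IgG). Biomarkers were read by ELISA, cytotoxicity by SRB, PBMC viability and proliferation by Alamar Blue. Each well value was divided by the mean of 8 DMSO control wells on the same plate and log10 transformed; duplicate blinded samples were tested at 4 concentrations.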

Compound in assay [2]: CNS(=O)(=O)C(F)(F)C(F)(F)C(F)(F)C(F)(F)C(F)(F)C(F)(F)C(F)(F)C(F)(F)F [N-Methylperfluorooctanesulfonamide]
As for the experimental part: as §1

Compound in assay [3]: OCC(F)(F)C(F)(F)C(F)(F)C(F)(F)C(F)(F)C(F)F [1H,1H,7H-Dodecafluoro-1-heptanol]
As for the experimental part:
as §1

Compound in assay [4]: O=C(O)CCC(F)(F)C(F)(F)C(F)(F)C(F)(F)C(F)(F)F [2H,2H,3H,3H-Perfluorooctanoic acid]
As to the method: as §1

Compound in assay [5]: O=C(O)C(F)(F)C(F)(F)C(F)(F)C(F)(F)C(F)(F)C(F)(F)C(F)(F)C(F)(F)C(F)(F)C(F)(F)C(F)(F)C(F)(F)C(F)(F)F [Perfluorotetradecanoic acid]
As for the experimental part:
as §1

Compound in assay [6]: O=C(O)C(F)(F)OC(F)(F)C(F)(F)OC(F)(F)C(F)(F)C(F)(F)C(F)(F)F [Perfluoro-3,6-dioxadecanoic acid]
As to the method: as §1

Compound in assay [7]: C=C(C)C(=O)OCC(F)(F)C(F)(F)C(F)(F)C(F)(F)C(F)(F)C(F)(F)C(F)(F)F
As to the method:
as §1

± gives the standard deviation of the averaged measurements.

For the test system SAg:CD40, the “level (log10)” value is -0.006 ± 0.021 in assay [1] (6700 nM); -0.0065 ± 0.0092 in assay [1] (20000 nM); -0.016 ± 0.02 in assay [2] (6700 nM); -0.0415 ± 0.012 in assay [2] (20000 nM); -0.0695 ± 0.025 in assay [2] (60000 nM); 0.015 ± 0.0099 in assay [3] (6700 nM). In addition, the “level (log10)” value in assay [3] (20000 nM) was 0 ± 0.018; in assay [3] (60000 nM), -0.0015 ± 0.005; in assay [4] (6700 nM), -0.0325 ± 0.054; in assay [4] (20000 nM), -0.025 ± 0.052; in assay [4] (60000 nM) it was -0.034 ± 0.048; in assay [5] (6700 nM), -0.0395 ± 0.069. The “level (log10)” value is -0.081 ± 0.085 in assay [5] (20000 nM); 0.003 ± 0.0028 in assay [6] (6700 nM); -0.0195 ± 0.016 in assay [6] (20000 nM); -0.08 ± 0.052 in assay [6] (60000 nM); -0.0375 ± 0.00071 in assay [7] (6700 nM); -0.0425 ± 0.011 in assay [7] (20000 nM).

Regarding SAg:CD62E/E-Selectin, the “level (log10)” value in assay [1] (6700 nM) was 0 ± 0.014; in assay [1] (20000 nM), -0.0225 ± 0.053; in assay [2] (6700 nM) it was -0.021 ± 0.0042; in assay [2] (20000 nM) it was -0.0475 ± 0.019; in assay [2] (60000 nM), -0.043 ± 0.0071; in assay [3] (6700 nM), -0.0075 ± 0.0021. Further, the “level (log10)” value is -0.0205 ± 0.013 in assay [3] (20000 nM); -0.02 ± 0.0057 in assay [3] (60000 nM); -0.01 ± 0.03 in assay [4] (6700 nM); 0.0015 ± 0.025 in assay [4] (20000 nM); 0.029 ± 0.016 in assay [4] (60000 nM); 0 ± 0.0028 in assay [5] (6700 nM). Also, the “level (log10)” value in assay [5] (20000 nM) was 0.019 ± 0.0028; in assay [6] (6700 nM) it was 0.027 ± 0.058; in assay [6] (20000 nM), 0.0485 ± 0.025; in assay [6] (60000 nM) it was 0.065 ± 0.081; in assay [7] (6700 nM), -0.001 ± 0.024; in assay [7] (20000 nM) it was 0.0155 ± 0.011.

As to SAg:CD69, the “level (log10)” value is -0.011 ± 0.017 in assay [1] (6700 nM); -0.0015 ± 0.018 in assay [1] (20000 nM); -0.0325 ± 0.0064 in assay [2] (6700 nM); -0.0405 ± 0.022 in assay [2] (20000 nM); -0.0685 ± 0.053 in assay [2] (60000 nM); -0.004 ± 0.013 in assay [3] (6700 nM). Also, the “level (log10)” value in assay [3] (20000 nM) was -0.0015 ± 0.021; in assay [3] (60000 nM) it was -0.002 ± 0.016; in assay [4] (6700 nM), -0.0265 ± 0.043; in assay [4] (20000 nM) it was -0.025 ± 0.038; in assay [4] (60000 nM), -0.0145 ± 0.028; in assay [5] (6700 nM), -0.0155 ± 0.016. The “level (log10)” value in assay [5] (20000 nM) is -0.018 ± 0.028; in assay [6] (6700 nM) it was 0 ± 0.013; in assay [6] (20000 nM) it was -0.0405 ± 0.00071; in assay [6] (60000 nM), -0.105 ± 0.067; in assay [7] (6700 nM), -0.01 ± 0.05; in assay [7] (20000 nM), -0.001 ± 0.045.

Take SAg:CXCL8/IL-8: the “level (log10)” value is -0.0055 ± 0.019 in assay [1] (6700 nM); 0.004 ± 0.045 in assay [1] (20000 nM); -0.0435 ± 0.026 in assay [2] (6700 nM); -0.0395 ± 0.005 in assay [2] (20000 nM); -0.0275 ± 0.0035 in assay [2] (60000 nM); 0.025 ± 0.0028 in assay [3] (6700 nM). In addition, the “level (log10)” value in assay [3] (20000 nM) was 0.008 ± 0.0071; in assay [3] (60000 nM), 0.037 ± 0.038; in assay [4] (6700 nM), -0.029 ± 0.079; in assay [4] (20000 nM), -0.0335 ± 0.039; in assay [4] (60000 nM), 0.0525 ± 0.018; in assay [5] (6700 nM) it was -0.028 ± 0.051. The “level (log10)” value in assay [5] (20000 nM) is 0.0035 ± 0.069; in assay [6] (6700 nM), -0.018 ± 0.0028; in assay [6] (20000 nM), -0.0295 ± 0.018; in assay [6] (60000 nM) it was -0.0385 ± 0.022; in assay [7] (6700 nM) it was -0.024 ± 0.031; in assay [7] (20000 nM) it was 0.0185 ± 0.0064.

SAg:CXCL9/MIG: the “level (log10)” value was -0.009 ± 0.0071 in assay [1] (6700 nM); 0.006 ± 0.0057 in assay [1] (20000 nM); -0.006 ± 0.017 in assay [2] (6700 nM); -0.0065 ± 0.0021 in assay [2] (20000 nM); -0.013 ± 0.011 in assay [2] (60000 nM); 0.006 ± 0.0071 in assay [3] (6700 nM). Also, the “level (log10)” value in assay [3] (20000 nM) was -0.006 ± 0.0071; in assay [3] (60000 nM), 0.01 ± 0.0099; in assay [4] (6700 nM), -0.0005 ± 0.015; in assay [4] (20000 nM), -0.0105 ± 0.018; in assay [4] (60000 nM) it was 0 ± 0.0057; in assay [5] (6700 nM), -0.004 ± 0.014. In addition, the “level (log10)” value in assay [5] (20000 nM) was 0.001 ± 0.0085; in assay [6] (6700 nM), -0.0095 ± 0.016; in assay [6] (20000 nM) it was -0.0135 ± 0.013; in assay [6] (60000 nM), 0.01 ± 0.0042; in assay [7] (6700 nM) it was -0.003 ± 0.017; in assay [7] (20000 nM), 0.009 ± 0.0014.

On to SAg:PBMC Cytotoxicity, for which the “level (log10)” value is -0.005 ± 0.045 in assay [1] (6700 nM); 0.0205 ± 0.035 in assay [1] (20000 nM); 0.0065 ± 0.018 in assay [2] (6700 nM); 0.034 ± 0.0042 in assay [2] (20000 nM); 0.044 ± 0.045 in assay [2] (60000 nM); 0.001 ± 0.0099 in assay [3] (6700 nM). The “level (log10)” value in assay [3] (20000 nM) was 0.028 ± 0.067; in assay [3] (60000 nM), -0.039 ± 0.0028; in assay [4] (6700 nM), 0.0125 ± 0.0078; in assay [4] (20000 nM) it was 0.0255 ± 0.039; in assay [4] (60000 nM), 0.0115 ± 0.039; in assay [5] (6700 nM), -0.051 ± 0.014. The “level (log10)” value is -0.016 ± 0.024 in assay [5] (20000 nM); 0.03 ± 0.0085 in assay [6] (6700 nM); 0.0395 ± 0.018 in assay [6] (20000 nM); 0.0705 ± 0.00071 in assay [6] (60000 nM); 0.0115 ± 0.005 in assay [7] (6700 nM); 0.0265 ± 0.046 in assay [7] (20000 nM).

Turning to SAg:Proliferation, the “level (log10)” value is -0.0025 ± 0.063 in assay [1] (6700 nM); -0.0055 ± 0.074 in assay [1] (20000 nM); -0.0295 ± 0.026 in assay [2] (6700 nM); -0.0755 ± 0.0092 in assay [2] (20000 nM); -0.048 ± 0.1 in assay [2] (60000 nM); -0.003 ± 0.014 in assay [3] (6700 nM). The “level (log10)” value is 0.03 ± 0.037 in assay [3] (20000 nM); 0.007 ± 0.018 in assay [3] (60000 nM); -0.011 ± 0.017 in assay [4] (6700 nM); -0.0475 ± 0.067 in assay [4] (20000 nM); -0.115 in assay [4] (60000 nM); -0.038 ± 0.045 in assay [5] (6700 nM). In addition, the “level (log10)” value in assay [5] (20000 nM) is -0.014 ± 0.025; in assay [6] (6700 nM) it was -0.007 ± 0.03; in assay [6] (20000 nM), 0.023 ± 0.033; in assay [6] (60000 nM), 0.0095 ± 0.043; in assay [7] (6700 nM), 0.0015 ± 0.0064; in assay [7] (20000 nM), 0.0185 ± 0.0092.

As to SAg:SRB, the “level (log10)” value in assay [1] (6700 nM) is 0.0175 ± 0.005; in assay [1] (20000 nM), 0.031 ± 0.017; in assay [2] (6700 nM) it was -0.0095 ± 0.022; in assay [2] (20000 nM) it was -0.021 ± 0.02; in assay [2] (60000 nM), -0.0685 ± 0.036; in assay [3] (6700 nM), -0.014 ± 0.017. The “level (log10)” value is -0.0105 ± 0.028 in assay [3] (20000 nM); -0.013 ± 0.011 in assay [3] (60000 nM); -0.0065 ± 0.00071 in assay [4] (6700 nM); -0.0095 ± 0.0035 in assay [4] (20000 nM); -0.0025 ± 0.013 in assay [4] (60000 nM); -0.0025 ± 0.013 in assay [5] (6700 nM). The “level (log10)” value was -0.008 ± 0.024 in assay [5] (20000 nM); -0.016 ± 0.0014 in assay [6] (6700 nM); -0.0085 ± 0.021 in assay [6] (20000 nM); -0.0855 ± 0.037 in assay [6] (60000 nM); -0.001 ± 0.0099 in assay [7] (6700 nM); -0.0095 ± 0.021 in assay [7] (20000 nM).
